Read-outs that look alike come from different tables or passages of the source. Numbered stars: 1 amine (or outer) side, 2 acyl side, 3 side chain; on linkers, the order of the positions; unused ones are H or OH. Bridge positions count the residues as written; N and C are the ends. Square brackets hold non-standard residues; d marks the D form. Peptide text beside a SMILES is read from it. * marks the point of attachment. pTerphenylCO(4''-OnC5H11) = CCCCCOc1ccc(-c2ccc(-c3ccc(C(=O)*)cc3)cc2)cc1; Orn(4R-OH,5R-OH) = O=C([C@H](C[C@@H](O)[C@@H](O)N[*:3])N[*:1])[*:2]; hTyr(3S-OH,4S-OH) = N[C@H](C(=O)O)[C@H](O)[C@@H](O)c1ccc(O)cc1; Pro(3S-OH,4S-Me) = C[C@H]1CN[C@H](C(=O)O)[C@H]1O; Hyp = O=C(O)[C@@H]1C[C@@H](O)CN1
Columns and labels:
T. gondii = tested on: T. gondii; parameters: method as in PMID 23019377; conditions: T. gondii-infected mice, after 16 days of treatment, cited from earlier work
[1] = tested on: T. gondii tachyzoites (RH strain, clone 2F1); test: microbe, parasite or virus in culture; format: cell-based, Toxoplasma gondii; conditions: for EC50: 72 h, read-out: EC50 ± SD against T. gondii tachyzoites
in vitro = conditions: human
HFF cells = test: Cytotoxicity in mammalian cells (MTT assay); conditions: read-out: CC50 ± SD against HFF cells; HFF, 72 h, MTT; highest tested concentration 50 μM; ± SD of two independent experiments
[2] = Cytotoxicity in mammalian cells (MTT assay); conditions: human, HFF cells
[3] = CC50 HFF cells/EC50 T. gondii ratio
[4] = Toxoplasma gondii, RH-2F1 tachyzoites in HFF, β-galactosidase readout, ± SD of two independent experiments
[5] = RH-2F1 tachyzoites in HFF, β-galactosidase readout, ± SD of two independent experiments

## O=C1C(O)=C([C@H]2CC[C@H](c3ccc(Cl)cc3)CC2)C(=O)c2ccccc21 [Atovaquone]
T. gondii; 5 mg/kg
  reduction of the number of brain cysts: 44%

## COc1cc2c3cc1Oc1c(OC)c(OC)cc4c1[C@@H](Cc1ccc(O)c(c1)Oc1ccc(cc1)C[C@@H]3N(C)CC2)N(C)CC4 [Compound 18, Berbamine]
[1]; [3]
  Selectivity Index (SI): 61
[1]; [4]
  EC50: 0.74 ± 0.34 µM
In vitro
  CC50: 45.3 ± 5.4 µM

## COc1ccc2cc1Oc1ccc(cc1)C[C@H]1c3cc(c(OC)cc3CCN1C)Oc1c(O)c(OC)cc3c1[C@H](C2)N(C)CC3 [Compound 20, Hanfangchin B]
[1]; [3]
  Selectivity Index (SI): 54
[1]; [5]
  EC50: 0.84 ± 0.19 µM
HFF cells
  CC50: 45 ± 5.85 µM

## C[C@@H](C1CCCCC1)n1c(-c2cc3c(cc2Br)OCO3)nc2cc(C(=O)Nc3ccc(C#N)cc3)ccc21 [Compound 26, AZ3451]
[1]; [3]
  Selectivity Index (SI): >55
[1]; [5]
  EC50: 0.91 ± 0.09 µM
HFF cells
  CC50: > 50 µM

## COC(=O)C1=C(C)NC(C)=C(C(=O)OCCN2CCN(C(c3ccccc3)c3ccccc3)CC2)C1c1cccc([N+](=O)[O-])c1 (stereo not drawn) [Compound 10, Manidipine]
[1]; [3]
  Selectivity Index (SI): >71
[1]; [4]
  EC50: 0.7 ± 0.25 µM
In vitro
  CC50 at 72 h: > 50 µM

## CNCc1[cH-]ccc1CNc1ccnc2cc(Cl)ccc12.[Fe+2].c1cc[cH-]c1 [Compound 27, Desmethyl ferroquine]
[1]; [3]
  Selectivity Index (SI): 71
[1]; [5]
  EC50: 0.54 ± 0.02 µM
HFF cells
  CC50: 38.2 ± 15.6 µM

## CN(C)[C@@H]1C(O)=C(C(N)=O)C(=O)[C@@]2(O)C(O)=C3C(=O)c4c(O)cccc4[C@@](C)(O)[C@H]3C[C@@H]12 [Compound 15, Tetracycline]
[1]; [4]
  EC50: 0.91 ± 0.09 µM
In vitro
  CC50: > 50 µM

## O=C(Nc1ccc([N+](=O)[O-])cc1Cl)c1cc(Cl)ccc1O [Compound 1, Niclosamide]
[1]
  Selectivity Index (SI): 83
[1]; [4]
  EC50: 0.43 ± 0.15 µM
[2]
  CC50 at 72 h: 35.5 ± 9.57 µM

## CCc1nc(N)nc(N)c1-c1ccc(Cl)cc1 [Compound 30, Pyrimetamine]
[1]; [4]
  EC50: 0.37 ± 0.08 µM
[2]
  CC50 at 72 h: > 50 µM

## O=C(O)c1ccc2c(c1)nc(Nc1cccc(Cl)c1)c1ccncc12 [Compound 22, Silmitasertib]
[1]; [4]
  EC50: 0.87 ± 0.15 µM
[2]
  CC50 at 72 h: 38.4 ± 16.4 µM

## COc1cccc2c1CCCC2CCCN1CCN(C2CCCCC2)CC1 (stereo not drawn) [Compound 23, PB 28]
[1]; [3]
  Selectivity Index (SI): >102
[1]; [5]
  EC50: 0.49 ± 0.21 µM
HFF cells
  CC50: > 50 µM

## CCCCCOc1ccc(-c2ccc(-c3ccc(C(=O)N[C@H]4C[C@@H](O)[C@@H](O)NC(=O)[C@@H]5[C@@H](O)[C@@H](C)CN5C(=O)[C@H]([C@@H](C)O)NC(=O)[C@H]([C@H](O)[C@@H](O)c5ccc(O)cc5)NC(=O)[C@@H]5C[C@@H](O)CN5C(=O)[C@H]([C@@H](C)O)NC4=O)cc3)cc2)cc1 [Compound 19, Anidulafungin] ({pTerphenylCO(4''-OnC5H11)}-[Orn(4R-OH,5R-OH)]T[Hyp][hTyr(3S-OH,4S-OH)]T[Pro(3S-OH,4S-Me)]; lactam 1-C)
[1]; [3]
  Selectivity Index (SI): 47
[1]; [4]
  EC50: 0.83 ± 0.21 µM
In vitro
  CC50: 38.9 ± 15.7 µM

## CC(C)(C)Cn1c(N)nc2ccc(-c3[nH]c(C(C)(C)C)nc3-c3ccc(F)cc3)nc21 [Compound 7, LY 2228820]
[1]; [3]
  Selectivity Index (SI): 116
[1]; [4]
  EC50: 0.23 ± 0.01 µM
In vitro
  CC50: 26.6 ± 11.6 µM

## CO[C@H]1C[C@@H]2CC[C@@H](C)[C@@](O)(O2)C(=O)C(=O)N2CCCC[C@H]2C(=O)O[C@H]([C@H](C)C[C@@H]2CC[C@@H](O)[C@H](OC)C2)CC(=O)[C@H](C)/C=C(\C)[C@@H](O)[C@@H](OC)C(=O)[C@H](C)C[C@H](C)/C=C/C=C/C=C/1C [Compound 17, Rapamycin]
[1]
  Selectivity Index (SI): >65
[1]; [4]
  EC50: 0.77 ± 0.3 µM
In vitro
  CC50 at 72 h: > 50 µM

## CNC(=O)c1cc(Oc2ccc(NC(=O)Nc3ccc(Cl)c(C(F)(F)F)c3)c(F)c2)ccn1 [Compound 4, Regorafenib]
[1]; [3]
  Selectivity Index (SI): 29
[1]; [4]
  EC50: 0.4 ± 0.15 µM
In vitro
  CC50 at 72 h: 11.6 ± 2.19 µM

## O=c1[nH]c2ccccc2n1C1CCN(CCCC(c2ccc(F)cc2)c2ccc(F)cc2)CC1 [Compound 29, Pimozide]
[1]
  Selectivity Index (SI): >61
[1]; [4]
  EC50: 0.82 ± 0.22 µM
[2]
  CC50 at 72 h: > 50 µM

## Nc1nc(Nc2ccc3c(c2)CC[C@@H](N2CCCC2)CC3)nn1-c1cc2c(nn1)-c1ccccc1CCC2 [Compound 2, Bemcentinib]
[1]; [3]
  Selectivity Index (SI): 83
[1]; [4]
  EC50: 0.38 ± 0.19 µM
In vitro
  CC50 at 72 h: 31.6 ± 5.52 µM

## COc1cc2[nH]c(C)c(-c3ccc(Oc4ccc(OC(F)(F)F)cc4)cc3)c(=O)c2cc1F [ELQ-316]
T. gondii; 25 mg/kg
  reduction of the number of brain cysts: 88%

## C[C@@H]1C[C@@H]([C@H](O)CC2CC(=O)NC(=O)C2)C(=O)[C@@H](C)C1 [Compound 25, Cycloheximide]
[1]; [4]
  EC50: 0.04 ± 0.02 µM
In vitro
  CC50: 2.48 ± 0.08 µM

## CN(C)CCOc1ccc(/C(=C(/CCCl)c2ccccc2)c2ccccc2)cc1 [Compound 16, Toremifene]
[1]; Toxoplasma gondii
  EC50: 0.85 ± 0.18 µM
In vitro
  CC50 at 72 h: 44.3 ± 6.8 µM

## CCC(C)n1ncn(-c2ccc(N3CCN(c4ccc(OCC5COC(Cn6cncn6)(c6ccc(Cl)cc6Cl)O5)cc4)CC3)cc2)c1=O (stereo not drawn) [Compound 5, Itraconazole]
[1]; [4]
  EC50: 0.1 ± 0.01 µM
[2]
  CC50 at 72 h: > 50 µM

## COc1cc(NC(=O)Nc2cccc(CNC(=O)O[C@H]3CCOC3)c2)ccc1-c1cnco1 [Compound 24, Merimepodib]
[1]; [4]
  EC50: 0.78 ± 0.27 µM
In vitro
  CC50: 26.4 ± 10 µM

## O=C1NCN(c2ccccc2)C12CCN(CCCC(c1ccc(F)cc1)c1ccc(F)cc1)CC2 [Compound 14, Fluspirilene]
[1]; [4]
  EC50: 0.76 ± 0.07 µM
[2]
  CC50 at 72 h: > 50 µM

## CCN1CCN(Cc2ccc(Nc3ncc(F)c(-c4cc(F)c5nc(C)n(C(C)C)c5c4)n3)nc2)CC1 [Compound 12, Abemaciclib]
[1]; [4]
  EC50: 0.05 ± 0.02 µM
[2]
  CC50 at 72 h: > 50 µM

## COc1ccc2cc1Oc1ccc(cc1)C[C@H]1c3cc(c(OC)cc3CCN1C)Oc1c(OC)c(OC)cc3c1[C@H](C2)N(C)CC3 [Compound 13, Tetrandrine]
[1]
  Selectivity Index (SI): 71
[1]; [4]
  EC50: 0.49 ± 0.15 µM
In vitro
  CC50: 34.7 ± 17 µM

## C=CCNc1nc(NCC=C)nc(N2CCN(C(c3ccc(F)cc3)c3ccc(F)cc3)CC2)n1 [Compound 11, Almitrine]
[1]; [4]
  EC50: 0.32 ± 0.14 µM
[2]
  CC50 at 72 h: > 50 µM

## CCSc1ccc2c(c1)N(CCCN1CCN(C)CC1)c1ccccc1S2 [Compound 21, Thiethylperazine]
[1]
  Selectivity Index (SI): 37
[1]; [4]
  EC50: 0.9 ± 0.11 µM
In vitro
  CC50 at 72 h: 33.1 ± 6.01 µM

## CCOc1ccc(Cc2nccc3cc(OCC)c(OCC)cc23)cc1OCC [Compound 3, Ethaverine]
[1]
  Selectivity Index (SI): >54
[1]; [4]
  EC50: 0.92 ± 0.09 µM
In vitro
  CC50 at 72 h: > 50 µM

## CNC(=O)c1cc(Oc2ccc(NC(=O)Nc3ccc(Cl)c(C(F)(F)F)c3)cc2)ccn1 [Compound 9, Sorafenib]
[1]; [4]
  EC50: 0.65 ± 0.25 µM
[2]
  CC50 at 72 h: 12.4 ± 3.17 µM

## Nc1nc2nc[nH]c2c(=S)[nH]1 [Compound 6, Tioguanine]
[1]
  Selectivity Index (SI): >109
[1]; Toxoplasma gondii
  EC50: 0.46 ± 0.19 µM
[2]
  CC50 at 72 h: > 50 µM

## OC(CNCC(O)C1CCc2cc(F)ccc2O1)C1CCc2cc(F)ccc2O1 (stereo not drawn) [Compound 28, Nebivolol]
[1]
  Selectivity Index (SI): 48
[1]; [4]
  EC50: 0.78 ± 0.28 µM
[2]
  CC50 at 72 h: 37.1 ± 2.88 µM

Reference: article PMC10328330 (PLOS ONE, 2023)
